Tests used:
Assay in all cases: relative viability (nuclei count vs DMSO), 5 days (fraction); higher = more cells survive
ALW-II-49-7 + OSI-027 = compound: Cc1ccc(C(=O)Nc2cccc(C(F)(F)F)c2)cc1Nc1cncc(C(N)=O)c1 [ALW-II-49-7] + COc1cccc2cc(-c3nc([C@H]4CC[C@H](C(=O)O)CC4)n4ncnc(N)c34)[nH]c12 [OSI-027] (partner 0.5 µM)
Outline: (§1)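 Relative viability is defined as nuclei in treated wells over nuclei in vehicle wells. Duplicate plates were run and medians reported. Lung cancer cell lines in 1536-well plates were dosed by pin tool one day after seeding, with one drug or with a fixed anchor-drug dose plus five library-drug doses (not always all listed) in √10 steps, and nuclei were counted after 5 days.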

Dasatinib + AZD7762 = compound: Cc1nc(Nc2ncc(C(=O)Nc3c(C)cccc3Cl)s2)cc(N2CCN(CCO)CC2)n1 [Dasatinib] + NC(=O)Nc1cc(-c2cccc(F)c2)sc1C(=O)N[C@H]1CCCNC1 [AZD7762] (partner 0.2 µM)
Outline: as §1

ALW-II-49-7 + Decitabine = compound: Cc1ccc(C(=O)Nc2cccc(C(F)(F)F)c2)cc1Nc1cncc(C(N)=O)c1 [ALW-II-49-7] + Nc1ncn([C@H]2C[C@H](O)[C@@H](CO)O2)c(=O)n1 [Decitabine] (partner 2 µM)
Outline: as §1

Dasatinib + Vorinostat = compound: Cc1nc(Nc2ncc(C(=O)Nc3c(C)cccc3Cl)s2)cc(N2CCN(CCO)CC2)n1 [Dasatinib] + O=C(CCCCCCC(=O)Nc1ccccc1)NO [Vorinostat] (partner 1 µM)
Outline: as §1

Cell Line	relative viability (ALW-II-49-7 + OSI-027; first compound 0.08 µM)	relative viability (ALW-II-49-7 + OSI-027; first compound 0.253 µM)	relative viability (ALW-II-49-7 + OSI-027; first compound 0.8 µM)	relative viability (ALW-II-49-7 + OSI-027; first compound 8 µM)	relative viability (Dasatinib + AZD7762; first compound 0.005 µM)	relative viability (Dasatinib + AZD7762; first compound 0.05 µM)	relative viability (Dasatinib + AZD7762; first compound 0.1581 µM)	relative viability (Dasatinib + AZD7762; first compound 0.5 µM)	relative viability (ALW-II-49-7 + Decitabine; first compound 0.08 µM)	relative viability (ALW-II-49-7 + Decitabine; first compound 0.253 µM)	relative viability (ALW-II-49-7 + Decitabine; first compound 0.8 µM)	relative viability (ALW-II-49-7 + Decitabine; first compound 8 µM)	relative viability (Dasatinib + Vorinostat; first compound 0.005 µM)	relative viability (Dasatinib + Vorinostat; first compound 0.01581 µM)	relative viability (Dasatinib + Vorinostat; first compound 0.05 µM)	relative viability (Dasatinib + Vorinostat; first compound 0.1581 µM)	relative viability (Dasatinib + Vorinostat; first compound 0.5 µM)	relative viability (ALW-II-49-7 + OSI-027; first compound 2.53 µM)	relative viability (Dasatinib + AZD7762; first compound 0.01581 µM)	relative viability (ALW-II-49-7 + Decitabine; first compound 2.53 µM)
LK-2	0.202	0.205	0.213	0.186	0.31	0.191	0.0866	0.129	0.393	0.288	0.301	0.252	0.314	0.288	0.21	0.19	0.148			
ChaGo-K-1	0.472	0.622	0.616	0.429	0.854	0.822	0.705	0.549	0.541	0.472	0.526	0.546	0.735	0.737	0.704	0.565	0.47	0.496	0.77	0.537
HCC-827	0.737	0.696	0.714	0.64	0.215	0.127	0.114	0.146	0.294	0.307	0.335	0.271	0.787	0.744	0.742	0.615	0.157	0.621	0.176	0.331
NCI-H1993	0.486	0.521	0.535	0.521	0.777	0.755	0.444	0.485	0.591	0.567	0.603	0.587	0.722	0.73	0.692	0.394	0.435	0.601	0.639	0.576
NCI-H647	0.665	0.736	0.495	0.619	0.468	0.141	0.114	0.155	0.322	0.321	0.396	0.307	0.674	0.49	0.415	0.149	0.184	0.434	0.399	0.374
NCI-H522	0.795	0.753	0.634	0.749	0.857	0.882	0.654	0.634	0.67	0.669	0.697	0.692	1.03	0.822	0.962	0.788	0.84	0.718	0.73	0.732
NCI-H460	0.467	0.641	0.81	0.115	0.523	0.542	0.472	0.328	0.5	0.488	0.513	0.492	0.659	0.619	0.877	0.475	0.315	0.682	0.546	0.408
EMC-BAC-2	0.351	0.39	0.336	0.305	1.05	0.776	0.591	0.391	1.01	1.02	0.982	0.907	0.392	0.308	0.273	0.22	0.172	0.296	1.03	0.947

— the supplement of paper PMC10307832
